Earlier results as cited in patent US11866384B2, “Compositions and their use in agricultural applications” (SYNSUS PRIVATE LABEL PARTNERS, LLC, priority 2018, dated 2024).

dicyandiamide
solubility in water: about 41 grams per liter
